According to the supplement of paper PMC10307832:

Columns and labels:
Test in all cases: relative viability (nuclei count vs DMSO), 5 days (fraction); higher = more cells survive
Ponatinib = compound: Cc1ccc(C(=O)Nc2ccc(CN3CCN(C)CC3)c(C(F)(F)F)c2)cc1C#Cc1cnc2cccnn12 [Ponatinib]
Summary of the method: (§1)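 Following overnight incubation at 37 °C, lung cancer cell lines in 1536-well plates were pinned with five library-drug doses (not always all listed) in √10 steps on vehicle-anchored plates. The cells then spent 5 days without medium change before a combined fix, permeabilisation and Hoechst stain, 4× imaging and MetaXpress nuclear counts. Viability is the treated-to-vehicle ratio of nuclei, taken as the median across plates. Only plates with control CV below 25% and at least one doubling passed.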

Pazopanib = compound: Cc1ccc(Nc2nccc(N(C)c3ccc4c(C)n(C)nc4c3)n2)cc1S(N)(=O)=O [Pazopanib]
Summary of the method: as §1

Ponatinib + Luminespib = compound: Cc1ccc(C(=O)Nc2ccc(CN3CCN(C)CC3)c(C(F)(F)F)c2)cc1C#Cc1cnc2cccnn12 [Ponatinib] + CCNC(=O)c1noc(-c2cc(C(C)C)c(O)cc2O)c1-c1ccc(CN2CCOCC2)cc1 [Luminespib] (partner 0.01 µM)
Summary of the method: (§2)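 The day after seeding in 1536-well plates, lung cancer cell lines were treated by pin tool with a single drug, or with a fixed anchor-drug dose together with five library-drug doses (not always all listed) in √10 steps. After 5 days, a combined fix-and-stain solution (final 0.05% Triton X-100, 1% formaldehyde, 1 ug/ml Hoechst) was added. Nuclei counted on 4× images gave relative viability as treated counts over vehicle counts, reported as the median of duplicate plates.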

Ponatinib + Foretinib = compound: Cc1ccc(C(=O)Nc2ccc(CN3CCN(C)CC3)c(C(F)(F)F)c2)cc1C#Cc1cnc2cccnn12 [Ponatinib] + COc1cc2c(Oc3ccc(NC(=O)C4(C(=O)Nc5ccc(F)cc5)CC4)cc3F)ccnc2cc1OCCCN1CCOCC1 [Foretinib] (partner 0.25 µM)
Summary of the method: as §2

Ponatinib + OSI-027 = compound: Cc1ccc(C(=O)Nc2ccc(CN3CCN(C)CC3)c(C(F)(F)F)c2)cc1C#Cc1cnc2cccnn12 [Ponatinib] + COc1cccc2cc(-c3nc([C@H]4CC[C@H](C(=O)O)CC4)n4ncnc(N)c34)[nH]c12 [OSI-027] (partner 0.5 µM)
Summary of the method: as §2

Ponatinib + Tozasertib = compound: Cc1ccc(C(=O)Nc2ccc(CN3CCN(C)CC3)c(C(F)(F)F)c2)cc1C#Cc1cnc2cccnn12 [Ponatinib] + Cc1cc(Nc2cc(N3CCN(C)CC3)nc(Sc3ccc(NC(=O)C4CC4)cc3)n2)n[nH]1 [Tozasertib] (partner 0.1 µM)
Summary of the method: as §2

Ponatinib + Dasatinib = compound: Cc1ccc(C(=O)Nc2ccc(CN3CCN(C)CC3)c(C(F)(F)F)c2)cc1C#Cc1cnc2cccnn12 [Ponatinib] + Cc1nc(Nc2ncc(C(=O)Nc3c(C)cccc3Cl)s2)cc(N2CCN(CCO)CC2)n1 [Dasatinib] (partner 0.075 µM)
Summary of the method: as §2

Ponatinib + Phenformin = compound: Cc1ccc(C(=O)Nc2ccc(CN3CCN(C)CC3)c(C(F)(F)F)c2)cc1C#Cc1cnc2cccnn12 [Ponatinib] + N=C(N)NC(=N)NCCc1ccccc1 [Phenformin] (partner 250 µM)
Summary of the method: as §2

Pazopanib + Luminespib = compound: Cc1ccc(Nc2nccc(N(C)c3ccc4c(C)n(C)nc4c3)n2)cc1S(N)(=O)=O [Pazopanib] + CCNC(=O)c1noc(-c2cc(C(C)C)c(O)cc2O)c1-c1ccc(CN2CCOCC2)cc1 [Luminespib] (partner 0.01 µM)
Summary of the method: as §2

Pazopanib + Foretinib = compound: Cc1ccc(Nc2nccc(N(C)c3ccc4c(C)n(C)nc4c3)n2)cc1S(N)(=O)=O [Pazopanib] + COc1cc2c(Oc3ccc(NC(=O)C4(C(=O)Nc5ccc(F)cc5)CC4)cc3F)ccnc2cc1OCCCN1CCOCC1 [Foretinib] (partner 0.25 µM)
Summary of the method: as §2

Pazopanib + OSI-027 = compound: Cc1ccc(Nc2nccc(N(C)c3ccc4c(C)n(C)nc4c3)n2)cc1S(N)(=O)=O [Pazopanib] + COc1cccc2cc(-c3nc([C@H]4CC[C@H](C(=O)O)CC4)n4ncnc(N)c34)[nH]c12 [OSI-027] (partner 0.5 µM)
Summary of the method: as §2

Pazopanib + Tozasertib = compound: Cc1ccc(Nc2nccc(N(C)c3ccc4c(C)n(C)nc4c3)n2)cc1S(N)(=O)=O [Pazopanib] + Cc1cc(Nc2cc(N3CCN(C)CC3)nc(Sc3ccc(NC(=O)C4CC4)cc3)n2)n[nH]1 [Tozasertib] (partner 0.1 µM)
Summary of the method: as §2

Pazopanib + Dasatinib = compound: Cc1ccc(Nc2nccc(N(C)c3ccc4c(C)n(C)nc4c3)n2)cc1S(N)(=O)=O [Pazopanib] + Cc1nc(Nc2ncc(C(=O)Nc3c(C)cccc3Cl)s2)cc(N2CCN(CCO)CC2)n1 [Dasatinib] (partner 0.075 µM)
Summary of the method: as §2

Pazopanib + Phenformin = compound: Cc1ccc(Nc2nccc(N(C)c3ccc4c(C)n(C)nc4c3)n2)cc1S(N)(=O)=O [Pazopanib] + N=C(N)NC(=N)NCCc1ccccc1 [Phenformin] (partner 250 µM)
Summary of the method: as §2

NCI-H1623
relative viability (Ponatinib; 0.002 µM): 0.991 | relative viability (Ponatinib; 0.006325 µM): 1.05 | relative viability (Ponatinib; 0.06325 µM): 1.01 | relative viability (Ponatinib; 0.2 µM): 0.969 | relative viability (Pazopanib; 0.01 µM): 0.964 | relative viability (Pazopanib; 0.03162 µM): 0.909 | relative viability (Pazopanib; 0.1 µM): 0.885 | relative viability (Pazopanib; 0.3162 µM): 1.06 | relative viability (Pazopanib; 1 µM): 0.929 | relative viability (Ponatinib + Luminespib; first compound 0.002 µM): 0.372 | relative viability (Ponatinib + Luminespib; first compound 0.006325 µM): 0.484 | relative viability (Ponatinib + Luminespib; first compound 0.06325 µM): 0.491 | relative viability (Ponatinib + Luminespib; first compound 0.2 µM): 0.426 | relative viability (Ponatinib + Foretinib; first compound 0.002 µM): 0.899 | relative viability (Ponatinib + Foretinib; first compound 0.006325 µM): 0.832 | relative viability (Ponatinib + Foretinib; first compound 0.06325 µM): 0.889 | relative viability (Ponatinib + Foretinib; first compound 0.2 µM): 0.833 | relative viability (Ponatinib + OSI-027; first compound 0.002 µM): 0.446 | relative viability (Ponatinib + OSI-027; first compound 0.006325 µM): 0.432 | relative viability (Ponatinib + OSI-027; first compound 0.06325 µM): 0.418 | relative viability (Ponatinib + OSI-027; first compound 0.2 µM): 0.447 | relative viability (Ponatinib + Tozasertib; first compound 0.002 µM): 0.429 | relative viability (Ponatinib + Tozasertib; first compound 0.006325 µM): 0.426 | relative viability (Ponatinib + Tozasertib; first compound 0.06325 µM): 0.453 | relative viability (Ponatinib + Tozasertib; first compound 0.2 µM): 0.419 | relative viability (Ponatinib + Dasatinib; first compound 0.002 µM): 0.524 | relative viability (Ponatinib + Dasatinib; first compound 0.006325 µM): 0.527 | relative viability (Ponatinib + Dasatinib; first compound 0.06325 µM): 0.55 | relative viability (Ponatinib + Dasatinib; first compound 0.2 µM): 0.539 | relative viability (Ponatinib + Phenformin; first compound 0.002 µM): 0.567 | relative viability (Ponatinib + Phenformin; first compound 0.006325 µM): 0.606 | relative viability (Ponatinib + Phenformin; first compound 0.06325 µM): 0.611 | relative viability (Ponatinib + Phenformin; first compound 0.2 µM): 0.627 | relative viability (Pazopanib + Luminespib; first compound 0.01 µM): 0.465 | relative viability (Pazopanib + Luminespib; first compound 0.03162 µM): 0.515 | relative viability (Pazopanib + Luminespib; first compound 0.1 µM): 0.512 | relative viability (Pazopanib + Luminespib; first compound 0.3162 µM): 0.479 | relative viability (Pazopanib + Luminespib; first compound 1 µM): 0.634 | relative viability (Pazopanib + Foretinib; first compound 0.01 µM): 0.835 | relative viability (Pazopanib + Foretinib; first compound 0.03162 µM): 0.846 | relative viability (Pazopanib + Foretinib; first compound 0.1 µM): 0.834 | relative viability (Pazopanib + Foretinib; first compound 0.3162 µM): 0.896 | relative viability (Pazopanib + Foretinib; first compound 1 µM): 0.911 | relative viability (Pazopanib + OSI-027; first compound 0.01 µM): 0.415 | relative viability (Pazopanib + OSI-027; first compound 0.03162 µM): 0.401 | relative viability (Pazopanib + OSI-027; first compound 0.1 µM): 0.421 | relative viability (Pazopanib + OSI-027; first compound 0.3162 µM): 0.448 | relative viability (Pazopanib + OSI-027; first compound 1 µM): 0.411 | relative viability (Pazopanib + Tozasertib; first compound 0.01 µM): 0.43 | relative viability (Pazopanib + Tozasertib; first compound 0.03162 µM): 0.455 | relative viability (Pazopanib + Tozasertib; first compound 0.1 µM): 0.413 | relative viability (Pazopanib + Tozasertib; first compound 0.3162 µM): 0.46 | relative viability (Pazopanib + Tozasertib; first compound 1 µM): 0.393 | relative viability (Pazopanib + Dasatinib; first compound 0.01 µM): 0.507 | relative viability (Pazopanib + Dasatinib; first compound 0.03162 µM): 0.467 | relative viability (Pazopanib + Dasatinib; first compound 0.1 µM): 0.509 | relative viability (Pazopanib + Dasatinib; first compound 0.3162 µM): 0.488 | relative viability (Pazopanib + Dasatinib; first compound 1 µM): 0.608 | relative viability (Pazopanib + Phenformin; first compound 0.01 µM): 0.584 | relative viability (Pazopanib + Phenformin; first compound 0.03162 µM): 0.541 | relative viability (Pazopanib + Phenformin; first compound 0.1 µM): 0.58 | relative viability (Pazopanib + Phenformin; first compound 0.3162 µM): 0.574 | relative viability (Pazopanib + Phenformin; first compound 1 µM): 0.595
